This note sets out measurements from patent US20230212172A1, “ARYLACETAMIDE ANALOGS OF PIPERAZINE-[1,2,4]TRIAZOLO[4,3-B]PYRIDAZINES” (University of Vermont and State Agricultural College, priority 2020, published 2023).

Like-named read-outs stand apart in the source and are kept apart here. Bounds are passed on as bounds.

The subject of the assay is C. parvum. In words: In vitro inhibition of C. parvum development in HCT-8 cells. As to conditions: Cryptosporidium parvum. It counts as cell-based.
The mark [1] stands for this setting: HCT-8 cells, Table 4, read-out: EC50 for inhibition of C. parvum development in HCT-8 cells.
The mark [2] stands for this setting: average EC50, C. parvum in HCT-8 cells, read-out: Cp HTC-8 Avg EC50.

In the case of `O=C(Cc1ccccc1Cl)N1CCN(c2ccc3nncn3n2)CC1` [Example 2178, 2-(2-chlorophenyl)-1-(4-{[1,2,4]triazolo[4,3-b]pyridazin-6-yl}piperazin-1-yl)ethan-1-one], the EC50 under setting [1] is over 25 µM.

Consider `O=C(Cc1cccc2ccccc12)N1CCN(c2ccc3nncn3n2)CC1` [Example 2257, 2-(naphthalen-1-yl)-1-(4-{[1,2,4]triazolo[4,3-b]pyridazin-6-yl}piperazin-1-yl)ethan-1-one], for which, under setting [1], the EC50 came to 17.1 µM.

For the compound `O=C(Cc1ccc(Cl)c(F)c1)N1CCN(c2ccc3nncn3n2)CC1` [Example 2631, 2-(4-chloro-3-fluorophenyl)-1-(4-{[1,2,4]triazolo[4,3-b]pyridazin-6-yl}piperazin-1-yl)ethan-1-one], the EC50 reads like this: under setting [1], 0.53 µM; under setting [2], 0.53 µM.

Consider `O=C(Cc1ccc(F)cc1)N1CCN(c2ccc3nncn3n2)CC1` [Example 2632, 2-(4-fluorophenyl)-1-(4-{[1,2,4]triazolo[4,3-b]pyridazin-6-yl}piperazin-1-yl)ethan-1-one], for which the EC50 under setting [1] came out at 1.18 µM.

On to `O=C(Cc1ccc(Cl)cc1)N1CCN(c2ccc3nncn3n2)CC1` [Example 2634, 2-(4-chlorophenyl)-1-(4-{[1,2,4]triazolo[4,3-b]pyridazin-6-yl}piperazin-1-yl)ethan-1-one], for which the EC50 under setting [2] came to 0.88 µM.

On to `O=C(Cc1c(Cl)cccc1Cl)N1CCN(c2ccc3nncn3n2)CC1` [Example 2720, 2-(2,6-dichlorophenyl)-1-(4-{[1,2,4]triazolo[4,3-b]pyridazin-6-yl}piperazin-1-yl)ethan-1-one], for which the EC50 under setting [1] is over 25 µM.

Turning to `O=C(Cc1ccc(Cl)cc1Cl)N1CCN(c2ccc3nncn3n2)CC1` [Example 2721, 2-(2,4-dichlorophenyl)-1-(4-{[1,2,4]triazolo[4,3-b]pyridazin-6-yl}piperazin-1-yl)ethan-1-one], the EC50 under setting [1] is over 25 µM.

Take `O=C(Cc1cc(Cl)ccc1Cl)N1CCN(c2ccc3nncn3n2)CC1` [Example 2746, 2-(2,5-dichlorophenyl)-1-(4-{[1,2,4]triazolo[4,3-b]pyridazin-6-yl}piperazin-1-yl)ethan-1-one]: under setting [1], the EC50 was 33 µM.

In the case of `O=C(Cc1cc(Cl)cc(Cl)c1)N1CCN(c2ccc3nncn3n2)CC1` [Example 2747, 2-(3,5-dichlorophenyl)-1-(4-{[1,2,4]triazolo[4,3-b]pyridazin-6-yl}piperazin-1-yl)ethan-1-one], the EC50 under setting [1] came to 0.99 µM and the EC50 under setting [2] was 0.99 µM.

Regarding `O=C(Cc1ccc2ccccc2c1)N1CCN(c2ccc3nncn3n2)CC1` [Example 2749, 2-(naphthalen-2-yl)-1-(4-{[1,2,4]triazolo[4,3-b]pyridazin-6-yl}piperazin-1-yl)ethan-1-one], the EC50 under setting [1] amounted to 12.4 µM.

`CC1CN(c2ccc3nncn3n2)CCN1C(=O)Cc1ccc(Cl)c(Cl)c1` (stereo not drawn) [Example 2752, 2-(3,4-dichlorophenyl)-1-(2-methyl-4-{[1,2,4]triazolo[4,3-b]pyridazin-6-yl}piperazin-1-yl)ethan-1-one]: the EC50 under setting [1] is 7.44 µM.

For the compound `O=C(Cc1ccc([N+](=O)[O-])cc1)N1CCN(c2ccc3nncn3n2)CC1` [Example 2755, 2-(4-nitrophenyl)-1-(4-{[1,2,4]triazolo[4,3-b]pyridazin-6-yl}piperazin-1-yl)ethan-1-one], the EC50 under setting [1] was 2.58 µM.

`Cc1ccc(CC(=O)N2CCN(c3ccc4nncn4n3)CC2)cc1Cl` [Example 2756, 2-(3-chloro-4-methylphenyl)-1-(4-{[1,2,4]triazolo[4,3-b]pyridazin-6-yl}piperazin-1-yl)ethan-1-one]: the EC50 under setting [1] amounted to 1.26 µM.

Take `Cc1ccc(CC(=O)N2CCN(c3ccc4nncn4n3)CC2)cc1F` [Example 2757, 2-(3-fluoro-4-methylphenyl)-1-(4-{[1,2,4]triazolo[4,3-b]pyridazin-6-yl}piperazin-1-yl)ethan-1-one]: under setting [1], the EC50 came to 5.56 µM.

For `Cc1cc(CC(=O)N2CCN(c3ccc4nncn4n3)CC2)ccc1Cl` [Example 2758, 2-(4-chloro-3-methylphenyl)-1-(4-{[1,2,4]triazolo[4,3-b]pyridazin-6-yl}piperazin-1-yl)ethan-1-one], the EC50 came out at 0.292 µM under setting [1] and 0.279 µM under setting [2].

On to `Cc1cc(CC(=O)N2CCN(c3ccc4nncn4n3)CC2)ccc1F` [Example 2759, 2-(4-fluoro-3-methylphenyl)-1-(4-{[1,2,4]triazolo[4,3-b]pyridazin-6-yl}piperazin-1-yl)ethan-1-one], for which the EC50 worked out at 0.335 µM under setting [1] and 0.353 µM under setting [2].

For the compound `O=C(Cc1cccc(Br)c1)N1CCN(c2ccc3nncn3n2)CC1` [Example 2760, 2-(3-bromophenyl)-1-(4-{[1,2,4]triazolo[4,3-b]pyridazin-6-yl}piperazin-1-yl)ethan-1-one], the EC50 under setting [1] was found to be 2.29 µM.

Turning to `COc1ccc(CC(=O)N2CCN(c3ccc4nncn4n3)CC2)cc1` [Example 2761, 2-(4-methoxyphenyl)-1-(4-{[1,2,4]triazolo[4,3-b]pyridazin-6-yl}piperazin-1-yl)ethan-1-one], the EC50 under setting [1] was 16.4 µM.

For `COc1cccc(CC(=O)N2CCN(c3ccc4nncn4n3)CC2)c1` [Example 2762, 2-(3-methoxyphenyl)-1-(4-{[1,2,4]triazolo[4,3-b]pyridazin-6-yl}piperazin-1-yl)ethan-1-one], the EC50 under setting [1] worked out at 16.4 µM.

Turning to `O=C(Cc1ccc(F)c(Cl)c1)N1CCN(c2ccc3nncn3n2)CC1` [Example 2763, 2-(3-chloro-4-fluorophenyl)-1-(4-{[1,2,4]triazolo[4,3-b]pyridazin-6-yl}piperazin-1-yl)ethan-1-one], the EC50 is, setting by setting: under setting [1], 0.24 µM; under setting [2], 0.238 µM.

In the case of `O=C(Cc1cccc(Cl)c1)N1CCN(c2ccc3nncn3n2)CC1` [Example 2764, 2-(3-chlorophenyl)-1-(4-{[1,2,4]triazolo[4,3-b]pyridazin-6-yl}piperazin-1-yl)ethan-1-one], under setting [1], the EC50 was 3.61 µM.

Take `O=C(C(=O)N1CCN(c2ccc3nncn3n2)CC1)c1ccc(Cl)c(Cl)c1` [Example 2765, 1-(3,4-dichlorophenyl)-2-(4-{ [1,2,4]triazolo[4,3-b]pyridazin-6-yl}piperazin-1-yl)ethane-1,2-dione]: under setting [1], the EC50 worked out at 2.25 µM.

For the compound `O=C(N1CCN(c2ccc3nncn3n2)CC1)C1(c2ccc(Cl)c(Cl)c2)CC1` [Example 2766, 1-[1-(3,4-dichlorophenyl)cyclopropanecarbonyl]-4-{[1,2,4]triazolo[4,3-b]pyridazin-6-yl}piperazine], the EC50 under setting [1] was 8.33 µM.

`O=C(Cc1ccc(Br)cc1)N1CCN(c2ccc3nncn3n2)CC1` [Example 2767, 2-(4-bromophenyl)-1-(4-{[1,2,4]triazolo[4,3-b]pyridazin-6-yl}piperazin-1-yl)ethan-1-one]: the 50% effective concentration (EC50) under setting [1] came out at 1.12 µM.

Regarding `O=C(Cc1ccc(COn2nnc3ccccc32)cc1)N1CCN(c2ccc3nncn3n2)CC1` [Example 2796, 2-{4-[(1H-1,2,3-benzotriazol-1-yloxy)methyl]phenyl}-1-(4-{[1,2,4]triazolo[4,3-b]pyridazin-6-yl}piperazin-1-yl)ethan-1-one], the EC50 under setting [1] was over 25 µM.

With `N#Cc1ccc(CC(=O)N2CCN(c3ccc4nncn4n3)CC2)cc1` [Example 2797, 4-[2-oxo-2-(4-{[1,2,4]triazolo[4,3-b]pyridazin-6-yl}piperazin-1-yl)ethyl]benzonitrile], the EC50 under setting [1] amounted to 11 µM.

Turning to `O=C(Cc1cccc(Cl)c1Cl)N1CCN(c2ccc3nncn3n2)CC1` [Example 2798, 2-(2,3-dichlorophenyl)-1-(4-{[1,2,4]triazolo[4,3-b]pyridazin-6-yl}piperazin-1-yl)ethan-1-one], under setting [1], the EC50 is over 25 µM.

Regarding `O=C(N1CCN(c2ccc3nncn3n2)CC1)C(F)(F)c1ccc(Cl)c(Cl)c1` [Example 2799, 2-(3,4-dichlorophenyl)-2,2-difluoro-1-(4-{[1,2,4]triazolo[4,3-b]pyridazin-6-yl}piperazin-1-yl)ethan-1-one], under setting [1], the EC50 came out at 2.3 µM.

As to `O=C(Cc1ccc(F)c(F)c1)N1CCN(c2ccc3nncn3n2)CC1` [Example 2800, 2-(3,4-difluorophenyl)-1-(4-{[1,2,4]triazolo[4,3-b]pyridazin-6-yl}piperazin-1-yl)ethan-1-one], the EC50 came to 0.76 µM under setting [1] and 0.76 µM under setting [2].

`O=C(Cc1ccc(Cl)c(Cl)c1)N1CCN(c2ccc3nnc(-c4ccccc4)n3n2)CC1` [Example 2807, 2-(3,4-dichlorophenyl)-1-(4-{3-phenyl-[1,2,4]triazolo[4,3-b]pyridazin-6-yl}piperazin-1-yl)ethan-1-one]: the EC50 under setting [1] was found to be 15 µM.

Take `Cc1nnc2ccc(N3CCN(C(=O)Cc4ccc(Cl)c(Cl)c4)CC3)nn12` [Example 2808, 2-(3,4-dichlorophenyl)-1-(4-{3-methyl-[1,2,4]triazolo[4,3-b]pyridazin-6-yl}piperazin-1-yl)ethan-1-one]: the EC50 under setting [1] turned out to be 30 µM.

On to `O=C(Cc1ccc(-c2ccccc2)cc1)N1CCN(c2ccc3nncn3n2)CC1` [Example 2809, 2-{[1,1′-biphenyl]-4-yl}-1-(4-{[1,2,4]triazolo[4,3-b]pyridazin-6-yl}piperazin-1-yl)ethan-1-one], for which the EC50 under setting [1] was over 25 µM.

In the case of `O=C(Cc1ccc(Cl)c(Cl)c1)N1CCN(c2ccc3nnc(C(F)(F)F)n3n2)CC1` [Example 2810, 2-(3,4-dichlorophenyl)-1-{4-[3-(trifluoromethyl)-[1,2,4]triazolo[4,3-b]pyridazin-6-yl]piperazin-1-yl}ethan-1-one], the EC50 under setting [1] was found to be 29 µM.

Consider `CC(C)(C)OC(=O)NCC#Cc1ccc(CC(=O)N2CCN(c3ccc4nncn4n3)CC2)cc1` [Example 2811, Tert-butyl N-(3-{4-[2-oxo-2-(4-{[1,2,4]triazolo[4,3-b]pyridazin-6-yl}piperazin-1-yl)ethyl]phenyl}prop-2-yn-1-yl)carbamate], for which the EC50 under setting [1] amounted to 12.8 µM.

In the case of `O=C(Cc1ccc(CN2CCOCC2)cc1)N1CCN(c2ccc3nncn3n2)CC1` [Example 2817, 2-{4-[(Morpholin-4-yl)methyl]phenyl}-1-(4-{[1,2,4]triazolo[4,3-b]pyridazin-6-yl}piperazin-1-yl)ethan-1-one], the EC50 under setting [1] was over 25 µM.

For the compound `O=C(Cc1ccc(CO)cc1)N1CCN(c2ccc3nncn3n2)CC1` [Example 2818], the EC50 under setting [1] was over 25 µM.

In general, EC50 refers to the concentration needed to bring the measured effect to its halfway point.
